Experimental data taken from patent US12703885B2, “Method for predicting the response to CDK4/6 inhibitor therapy in cancer patients” (GBG FORSCHUNGS GMBH, priority 2021, dated 2026).

Tested on: HR+, HER2− eBC at high risk of recurrence
Test: PENELOPE-B randomized, double-blind, placebo-controlled Phase 3 study; Cox regression for endpoint iDFS
Assay type: in vivo, human
Source text: The data underlying the present invention were obtained in the context of the PENELOPE^B study (NCT01864746). PENELOPE^B is a randomized, double-blind, placebo-controlled Phase 3 study comparing one year of palbociclib plus at least five years of standard adjuvant endocrine therapy to placebo plus at least five years of standard adjuvant endocrine therapy in 1,250 women with HR+, HER2− eBC at high risk of recurrence who have residual invasive disease after completing neoadjuvant chemotherapy. Patients in the trial scored 3 or higher (or 2 if there were lymph node metastases at the time of surgery) on the clinical-pathologic stage—estrogen/grade (CPS-EG). The CPS-EG is a validated risk assessment tool combining: clinical stage before neoadjuvant treatment, pathological stage after neoadjuvant treatment, grading and estrogen-receptor status. More than 190 clinical sites in 12 countries around the globe participated in PENELOPE-B. The study opened in November 2013 and closed recruitment on Dec. 31, 2017. RNA was extracted from post-surgical residual tumor tissue of patients from the Penelope^B study (GBG 78) and quantified using the HTG EdgeSeq Oncology Biomarker Panel (HTG Molecular Diagnostics Inc.) resulting in a so-called count value for each of the 2559 genes in the assay. Quality control measures were performed as described by the manufacturer. For 906 patients HTG measurements were successfully performed and passed said quality controls. […] Each regression model was calculated based on 906 patients from the Penelope^B study. […] The 20 genes with smallest p-values for the interaction were selected. • 2) For each gene from step 1) the technical eligibility for measurement was evaluated. […] In the cohort of 782 patients the gene expression value was adjusted to the lower limit for between 0 and 16 patients, and to the upper limit for between 0 and 8 patients. • 4) The correlation between genes was analyzed by hierarchical clustering and analysis of the Pearson correlation coefficient matrix based on graphical methods. […]

## CC(=O)c1c(C)c2cnc(Nc3ccc(N4CCNCC4)cn3)nc2n(C2CCCC2)c1=O [palbociclib]
Overall population, n=906, plus standard adjuvant endocrine therapy, no significant difference between arms
  HR for iDFS, palbociclib vs. placebo (95% CI): 0.89 (0.69-1.16)
Subgroup score3dich high (above median of average of PIAS2, MAP2K6, DSG3, ABCC12, IFT52 expression)
  HR (95% CI), arm (palbociclib vs placebo), iDFS: 0.54 (0.37-0.79)
Subgroup score3dich low (below median of average of PIAS2, MAP2K6, DSG3, ABCC12, IFT52 expression)
  HR (95% CI), arm (palbociclib vs placebo), iDFS: 1.45 (1.00-2.09)
